Data set [1] relates to Mycobacterium tuberculosis. Put plainly: microbe, parasite or virus in culture. The settings on record: H37Rv (ATCC 27294).
Data set [2] can be described thus: (§1) Cytotoxicity against human HepG2 cells assessed as reduction in cell viability incubated for 72 hrs by MTT assay. The format is toxicity, cell-based. Conditions: HepG2 cells. In general terms: Tetrazolium assays rely on reduction of a dye to a coloured formazan, in cell work by metabolically active cells.
The nature of data set [3]: (§2) Cytotoxicity against African green monkey Vero cells assessed as reduction in cell viability incubated for 72 hrs by MTT assay. The format is toxicity, cell-based. Conditions: chlorocebus sabaeus, Vero cells.
Data set [4] is described as follows: Aqueous solubility of compound in HCl at pH 1.2 incubated for 4 hrs by UHPLC-DAD analysis. The format is physicochemical.
Data set [5] can be described thus: (§3) Cytotoxicity against human HepG2 cells assessed as reduction in cell viability incubated for 72 hrs by neutral red uptake method. The format is toxicity, cell-based. The settings on record: HepG2 cells.
Data set [6] in a line: (§4) Cytotoxicity against African green monkey Vero cells assessed as reduction in cell viability incubated for 72 hrs by neutral red uptake method. Conditions: chlorocebus sabaeus, Vero cells. The format is toxicity, cell-based.
Data set [7] relates to HepG2. The description is as §3. The format is toxicity, cell-based. Conditions: hepg2, 72 h.
Data set [8] can be described thus: Aqueous solubility of compound in NH4HCO3 at pH 9.1 incubated for 4 hrs by UHPLC-DAD analysis. Conditions: NH4HCO3, pH 9.1. The format is physicochemical.
Data set [9] has as its system Vero. Described as §4. Conditions: chlorocebus sabaeus, vero, 72 h. The format is toxicity, cell-based.
Data set [10] relates to HepG2. The data set is described as §1. The format is toxicity, cell-based. Conditions: hepg2, 72 h.
Data set [11] deals with Vero. The description is as §2. The format is toxicity, cell-based. The settings on record: chlorocebus sabaeus, vero, 72 h.
Data set [12] can be described thus: Aqueous solubility of compound in PBS at pH 7.4 incubated for 4 hrs by UHPLC-DAD analysis. The format is physicochemical.
The nature of data set [13]: Chemical stability of compound in PBS at pH 7.4 assessed as parent compound remaining at 10 uM measured after 24 hrs by HPLC-MS/MS analysis. The format is physicochemical. Conditions: read-out: Stability.
The subject of data set [14] is Mycobacterium tuberculosis. The format is functional, H37Rv (ATCC 27294), RAW264.7. Conditions: dose 5 µM; time 5 day.
The subject of another data set is Acinetobacter baumannii. The format is functional. The settings on record: time 24 hrs.
Data set [15] is described as follows: Metabolic stability in rat liver microsomes assessed as half-life at 2 uM measured upto 30 mins in presence of NADPH by HPLC-MS/MS analysis. The format is ADME, Microsome. On the technique in general: Microsomes from liver hold many membrane-bound enzymes, among them those of drug oxidation.
Data set [16] is described as follows: Half-life in male CF1 mouse at 300 mg/kg, po administered via gavage and measured after 8 hrs by UHPLC-DAD analysis. The format is ADME, organism-based. Conditions: in vivo.
Data set [17] is described as follows: Chemical stability of compound in 0.1M NH4HCO3 solution at pH 9.1 assessed as parent compound remaining at 10 uM measured after 24 hrs by HPLC-MS/MS analysis. The format is physicochemical. Conditions: read-out: Stability.
Another data set has as its system Escherichia coli. The format is functional. The settings on record: ATCC 25922, time 24 hrs.
The next data set relates to Staphylococcus aureus. The format is functional. The settings on record: ATCC 25923, time 24 hrs.
Data set [18] in a line: Drug concentration in male CF1 mouse plasma at 300 mg/kg, po administered via gavage and measured after 8 hrs by UHPLC-DAD analysis. The format is ADME, organism-based.
The nature of data set [19]: Drug concentration in male CF1 mouse plasma at 300 mg/kg, po administered via gavage and measured after 0.75 hrs by UHPLC-DAD analysis. The format is ADME, organism-based.
Data set [20] relates to Mycobacterium tuberculosis. The format is functional, H37Rv (ATCC 27294), RAW264.7. The settings on record: dose 1 µM; time 5 day.
Data set [21] can be described thus: Elimination rate constant in male CF1 mouse at 300 mg/kg, po administered via gavage and measured after 8 hrs by UHPLC-DAD analysis. The format is ADME, organism-based. The settings on record: in vivo.
The subject of a further data set is Klebsiella pneumoniae. The format is functional. The settings on record: time 24 hrs.
A short description of data set [22]: Drug concentration in male CF1 mouse plasma at 300 mg/kg, po administered via gavage and measured after 0.5 hrs by UHPLC-DAD analysis. The format is ADME, organism-based.
The nature of data set [23]: Drug concentration in male CF1 mouse plasma at 300 mg/kg, po administered via gavage and measured after 1 hrs by UHPLC-DAD analysis. The format is ADME, organism-based.
The nature of data set [24]: Drug concentration in male CF1 mouse plasma at 300 mg/kg, po administered via gavage and measured after 4 hrs by UHPLC-DAD analysis. The format is ADME, organism-based.
Data set [25] can be described thus: Metabolic stability in rat liver microsomes assessed as intrinsic clearance at 2 uM measured upto 30 mins in presence of NADPH by HPLC-MS/MS analysis. The format is ADME, Microsome. Conditions: read-out: CLH.
A short description of data set [26]: Permeability of compound at pH 7.4 at 10 uM measured after 5 hrs by PAMPA assay. The format is ADME. Conditions: read-out: permeability. In general terms: PAMPA measures passive passage across an artificial lipid membrane.
A short description of data set [27]: Drug concentration in male CF1 mouse plasma at 300 mg/kg, po administered via gavage and measured after […] by UHPLC-DAD analysis. The format is ADME, organism-based. Conditions: time 0.25 hrs.
Data set [28] is described as follows: Chemical stability of compound in 0.1 M HCl solution at pH 1.2 assessed as parent compound remaining at 10 uM measured after 24 hrs by HPLC-MS/MS analysis. The format is physicochemical. The settings on record: read-out: Stability.
In data set [29] the test system is Mycobacterium tuberculosis. The format is functional, H37Rv (ATCC 27294), RAW264.7. The settings on record: dose 1 µM; time 5 day. This is another data set of the same source.

In brackets after ≈: the same amount, converted by molar mass. Bounds are passed on as bounds.

On to `Cc1cc(OCCCNc2ccc(Br)cc2)c2cc(Cl)ccc2n1`, for which the MIC in data set [1] worked out at 1.55 µM (≈ 0.629 µg/mL). Moreover, the half-maximal cytotoxic concentration (CC50) (usually the concentration at which the toxic effect on the cells reaches its halfway point) at 72 h is 0.3 µM in data set [2] and less than 1 µM in [3].
In the case of `CCc1ccc(NCCCOc2cc(C)nc3ccc(OC)cc23)cc1`, the solubility (as a rule, how much of the substance goes into solution per volume) at 4 h in data set [4] was 2650 µM (≈ 929 µg/mL). In [1], this compound returned an MIC of 0.06 µM (≈ 0.021 µg/mL).
Regarding `COc1ccc2nc(C)cc(OCCCNc3ccc(Br)cc3)c2c1`, the CC50 at 72 h in [5] was 16.8 µM; in data set [6], 12.8 µM; in data set [2], 15.3 µM; in data set [3], more than 20 µM. The compound further returned a solubility at 4 h in data set [4] of more than 2500 µM. In [1], this compound came in with an MIC of 0.1 µM (≈ 0.0401 µg/mL).
With `Cc1cc(OCCCNc2ccc(Cl)cc2)c2cc(Br)ccc2n1`, the CC50 at 72 h in data set [5] and in data set [2] was more than 20 µM each time. The solubility at 4 h in data set [4] was more than 2470 µM.
For the compound `CCc1ccc(NCCCOc2cc(C)nc3ccc(Cl)cc23)cc1`, the cytotoxic concentration (CC50) result with HepG2 [7], with Vero [9], in the data set on HepG2 [10] and in the data set on Vero [11] was “Not_determined(Insoluble)” throughout. Besides, the values for the solubility at 4 h in data set [4], in [8] and in [12] were 200 µM (≈ 71 µg/mL), 0.37 µM (≈ 0.131 µg/mL) and 0.06 µM (≈ 0.0213 µg/mL), respectively. Further, the MIC in [1] amounted to 0.03 µM (≈ 0.0106 µg/mL).
For `COc1ccc2nc(C)cc(OCCCNc3ccc(I)cc3)c2c1`, the CC50 at 72 h in [5] is 12.8 µM; in [6], 7.5 µM; in data set [2] it was 10.6 µM; in data set [3], 8.2 µM. In addition, the solubility at 4 h in [4] is more than 2230 µM. For the same compound, in [1], the MIC was found to be 0.09 µM (≈ 0.0403 µg/mL).
In the case of `CCc1ccc(NCCCOc2cc(CC)nc3ccc(Br)cc23)cc1`, the 50% cytotoxic concentration (CC50) at 72 h was 8.3 µM in data set [5], 9.1 µM in [6], more than 20 µM in data set [2] and more than 20 µM in data set [3]. The compound further showed an MIC in [1] of 0.1 µM (≈ 0.0413 µg/mL).
Regarding `CCc1ccc(NCCCOc2cc(C)nc3ccc(Br)cc23)cc1`, the results for the remaining at 24 h, 10 µM in data set [13], in data set [17] and in data set [28] were 5.3%, 6% and 100%, respectively. The Activity in [14] is 4.1 log10CFU; in data set [20] it was 3.9 log10CFU. Further, the MIC against Acinetobacter baumannii, in the data set on Escherichia coli, in the data set on Staphylococcus aureus and in the data set on Klebsiella pneumoniae was more than 20 µM in each case. In addition, the CC50 at 72 h in data set [5], in data set [2] and in data set [3] was more than 20 µM each time. Moreover, the half-life (commonly how long it takes for the measured level to halve) at 2 µM in [15] came out at 7 min. In data set [4], the solubility at 4 h is more than 2500 µM. The same compound gave a half-life in data set [16] of 4.3 h. This compound also returned a concentration at 8 h in [18] of 9.8 µM. This compound also returned a concentration at 0.75 h in [19] of 15.7 µM. Besides, in data set [21], the k el at 8 h is 4.44e-05 s⁻¹. In [22], the concentration at 0.5 h came out at 11.1 µM. The concentration at 1 h in data set [23] stood at 32.1 µM. In addition, in data set [24], the concentration at 4 h came to 13.5 µM. For the same compound, the CLint scaled at 2 µM in [25] came to 58 mL/min/kg. For the same compound, the Papp at 5 h, 10 µM in data set [26] is 0.2 ×10⁻⁶ cm/s. The compound further displayed a concentration at […] in data set [27] of 7.49 µM.
Regarding `NNC(=O)c1ccncc1` [ISONIAZID], the Activity in data set [29] stood at 2.25 log10CFU.

The values above are taken from ChEMBL document CHEMBL6078678, “Unveiling the Antimycobacterial Potential of Novel 4-Alkoxyquinolines: Insights into Selectivity, Mechanism of Action, and In Vivo Exposure” (J Med Chem, 2024).
